The record followed here is patent publication US20250049776A1, “AUTOPHAGY INDUCING COMPOUNDS AND USES THEREOF, IN PARTICULAR FOR A SYSTEMIC TREATMENT OF DISEASES AND CONDITIONS” (Samsara Therapeutics Inc., priority 2021, published 2025).

Counter-ions that a name gives are not always drawn.

The test system of test [1] is U2OS cell line stabling expressing RFP-eGFP-hLC3b. The test can be described thus: Tandem reporter assay (autophagic flux, RFP-only puncta). Type of test: cell-based. The following applies: Homo sapiens, RFP-only puncta as percentage of DMSO-treated control, 24 hours; for activity at 1 µM: read-out: Autolysosome % DMSO activity (compound concentration of 1 μM); for activity at 10 µM: read-out: Autolysosome % DMSO activity (compound concentration of 10 μM). On the procedure:
Selected compounds of this invention were also assessed for their ability to stimulate autophagy using a U20S cell line stabling expressing RFP-eGFP-hLC3b (a tandem reporter cell line). During the process of autophagy, the cargo to be degraded is first enveloped by organelles called autophagosomes. These autophagosomes then fuse with lysosomes, causing them to become acidified and their digestive enzymes to become activated. The term “autophagic flux” is used to represent the dynamic process of autophagy: autophagic flux refers to the whole process of autophagy, including autophagosome formation, maturation, fusion with lysosomes, subsequent breakdown and the release of macromolecules back into the cytosol (Zhang X J, Chen S, Huang K X, Le W D. Why should autophagic flux be assessed? Acta Pharmacol Sin. 2013 May; 34(5): 595-9. doi: 10.1038/aps.2012.184. Epub 2013 Mar. 11). Compounds that stimulate autophagic flux stimulate the dynamic process of autophagy (the whole process of autophagy).
LC3b is a protein found in the membrane of autophagosomes which has been used to generate genetic reporters of autophagy in cells. In these systems a tandem fusion of LC3b is engineered with two fluorescent proteins of different wavelengths: one which is acid sensitive (for example eGFP, which fluoresces green) and the other which is acid insensitive (for example RFP, which fluoresces red). Cells expressing RFP-eGFP-hLC3b can be examined using fluorescent microscopy: the autophagosomes present will fluoresce in both channels (either yellow in an overlay of both channels or puncta that are present in both the individual red and green channels) but the autolysosomes present will fluoresce in the RFP (red) channel only. Using a fluorescent microscope, the number of autophagosomes and autolysosomes can be counted, allowing for the monitoring of both the induction of autophagy (total puncta count) and the rate of autophagic flux (ratio of red-only to red-and-green puncta). The influence of small molecules on autophagy induction and flux can be assessed using this system by comparison to a non-treated control.
Representative Procedure: Human osteosarcoma U2OS cells stably expressing RFP-eGFP-hLC3b were seeded (10,000 cells/well) into a 96-well glass-bottom plate (Cell Carrier Ultra, Perkin Elmer) in DMEM Glutamax media (Gibco) supplemented with 10% Fetal Bovine Serum (FBS) and antibiotics (100 u/ml penicillin, 100 μg/ml streptomycin, Invitrogen), then incubated overnight in a humified atmosphere at 37° C. and 5% CO2. The cells were then treated with the compounds of interest, dissolved in DMSO, in a duplicated 5- or 10-point dose-response. 8 wells were treated with an equivalent volume of DMSO, 4 with 0.3 μM torin-1 as a positive control (MCE) and 4 wells with 0.4 μM torin-1 plus 0.2 μM bafilomycin (MCE) as a control for flux inhibition. The cells were returned to the incubator and the treatment continued for 24 hours. After treatment, the media was aspirated off and the cells fixed with a solution of 4% formaldehyde+1% glutaraldehyde (Sigma) in dPBS (plus magnesium and calcium, Gibco).
Fixation was allowed to proceed for 15 minutes at room temperature then the fixative solution discarded and replaced with PBS (Gibco) plus Hoescht 33342 ([…], Sigma). After 30 minutes the plates were imaged on an Opera Phenix confocal microscope (Perkin-Elmer) using a 40× water objective, collecting using DAPI, mCherry and GFP channels. Cells were detected based upon the staining of their nuclei with DAPI using the Harmony image analysis software (Perkin-Elmer) and the number of autophagosomes (GFP and RFP puncta) and autolysosomes (RFP only puncta) per cell were counted using the spot picking function within the software.
For orientation: In a reporter assay the amount or activity of a reporter protein is the signal.

Test [2] concerns Human osteosarcoma U20S cells. The test can be described thus: Assay to measure lysosome and autolysosome formation (acidic vesicle formation, LysoView/LysoTracker staining). To be noted: Homo sapiens; U2OS cells, concentration of 0.8 μM; read-out: Activity (percentage increase in acidic vesicle formation over the DMSO-treated control), Table 2. Type of test: cell-based. The method, boiled down: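 U2OS cells treated with compounds in DMSO for 24 h, then stained 45 min at 37 °C with 1× LysoView 633 or 50 nM LysoTracker Deep Red, with Hoechst nuclear counterstain. Live-cell fluorescence imaging at 37 °C; acidic vesicle formation judged against DMSO-treated control.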

As to `CC(C)N(C(=O)c1csc(-c2cnn(-c3ccccc3)c2)n1)C1CCNCC1` [Compound 163, N-isopropyl-2-(1-phenyl-1H-pyrazol-4-yl)-N-(piperidin-4-yl)thiazole-4-carboxamide hydrochloride], in test [1], the activity at 1 µM amounted to 144% and the activity at 10 µM was 187%. In addition, the activation at 0.8 µM in test [2] lay within 10 to 30%.
For `CCCN(C(=O)c1csc(-c2cnn(-c3ccccc3)c2)n1)[C@@H]1CCNC1` [Compound 171, (R)-2-(1-phenyl-1H-pyrazol-4-yl)-N-propyl-N-(pyrrolidin-3-yl)thiazole-4-carboxamide hydrochloride], in test [1], the activity at 1 µM was determined as 200% and the activity at 10 µM was found to be 294%. In test [2], the activation at 0.8 µM is 10 to 30%.
